Measurements: PubChem BioAssay (NCI)
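Results reflect a 48-hour exposure of cells in 96-well plates to compound at five concentrations. Abbreviation: GI50, concentration required for 50% inhibition of growth. TGI: total growth inhibition.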

What was measured:
Test in all cases: DTP human tumour cell line panel, 48 h; in the data active = GI50 below about 0.43 µM; inactive = the rest
PC-3 prostate = tested on: PC-3 prostate
SK-MEL-5 melanoma = tested on: SK-MEL-5 melanoma
HCC-2998 colon = tested on: HCC-2998 colon
OVCAR-4 ovarian = tested on: OVCAR-4 ovarian
MALME-3M melanoma = tested on: MALME-3M melanoma
SN12C renal = tested on: SN12C renal
HS 578T breast = tested on: HS 578T breast
UO-31 renal = tested on: UO-31 renal
ACHN renal = tested on: ACHN renal
NCI/ADR-RES ovarian = tested on: NCI/ADR-RES ovarian
RXF 393 renal = tested on: RXF 393 renal
HOP-92 NSCLC = tested on: HOP-92 NSCLC
BT-549 breast = tested on: BT-549 breast
UACC-62 melanoma = tested on: UACC-62 melanoma
SNB-75 CNS = tested on: SNB-75 CNS
SK-OV-3 ovarian = tested on: SK-OV-3 ovarian
SK-MEL-28 melanoma = tested on: SK-MEL-28 melanoma
EKVX NSCLC = tested on: EKVX NSCLC
LOX IMVI melanoma = tested on: LOX IMVI melanoma
HT29 colon = tested on: HT29 colon
CAKI-1 renal = tested on: CAKI-1 renal
HCT-116 colon = tested on: HCT-116 colon
SR leukemia = tested on: SR leukemia
MOLT-4 leukemia = tested on: MOLT-4 leukemia
U251 CNS = tested on: U251 CNS
HOP-62 NSCLC = tested on: HOP-62 NSCLC
RPMI-8226 leukemia = tested on: RPMI-8226 leukemia
HCT-15 colon = tested on: HCT-15 colon
TK-10 renal = tested on: TK-10 renal
COLO 205 colon = tested on: COLO 205 colon
SF-268 CNS = tested on: SF-268 CNS
A498 renal = tested on: A498 renal
MCF7 breast = tested on: MCF7 breast
A549 NSCLC = tested on: A549 NSCLC
OVCAR-3 ovarian = tested on: OVCAR-3 ovarian
UACC-257 melanoma = tested on: UACC-257 melanoma
NCI-H460 lung = tested on: NCI-H460 lung
OVCAR-5 ovarian = tested on: OVCAR-5 ovarian
786-0 renal = tested on: 786-0 renal
OVCAR-8 ovarian = tested on: OVCAR-8 ovarian
MDA-MB-231 breast = tested on: MDA-MB-231 breast
M14 melanoma = tested on: M14 melanoma
NCI-H226 lung = tested on: NCI-H226 lung
HL-60(TB) leukemia = tested on: HL-60(TB) leukemia
SF-539 CNS = tested on: SF-539 CNS
SNB-19 CNS = tested on: SNB-19 CNS
K-562 leukemia = tested on: K-562 leukemia
CCRF-CEM leukemia = tested on: CCRF-CEM leukemia
SF-295 CNS = tested on: SF-295 CNS
NCI-H23 lung = tested on: NCI-H23 lung
IGROV1 ovarian = tested on: IGROV1 ovarian
DU-145 prostate = tested on: DU-145 prostate
NCI-H522 lung = tested on: NCI-H522 lung
SW-620 colon = tested on: SW-620 colon

COc1ccc(-c2oc3cc(O)cc(O)c3c(=O)c2OC)cc1O
6050 nM: TGI (U251 CNS)
8660 nM: TGI (SF-295 CNS)
2620 nM: TGI (OVCAR-3 ovarian)
14600 nM: TGI (A498 renal)
6840 nM: TGI (NCI/ADR-RES ovarian)
> 16500 nM: TGI (PC-3 prostate) | TGI (SK-MEL-5 melanoma) | TGI (HCC-2998 colon) | TGI (OVCAR-4 ovarian) | TGI (MALME-3M melanoma) | TGI (SN12C renal) | TGI (HS 578T breast) | TGI (UO-31 renal) | TGI (ACHN renal) | TGI (HOP-92 NSCLC) | TGI (BT-549 breast) | TGI (UACC-62 melanoma) | TGI (SK-OV-3 ovarian) | TGI (SK-MEL-28 melanoma) | TGI (EKVX NSCLC) | TGI (LOX IMVI melanoma) | TGI (HT29 colon) | TGI (CAKI-1 renal) | TGI (HCT-116 colon) | TGI (SR leukemia) | TGI (MOLT-4 leukemia) | TGI (HOP-62 NSCLC) | TGI (RPMI-8226 leukemia) | TGI (HCT-15 colon) | TGI (TK-10 renal) | TGI (COLO 205 colon) | TGI (SF-268 CNS) | TGI (MCF7 breast) | TGI (A549 NSCLC) | TGI (UACC-257 melanoma) | TGI (NCI-H460 lung) | TGI (OVCAR-5 ovarian) | TGI (786-0 renal) | TGI (OVCAR-8 ovarian) | TGI (MDA-MB-231 breast) | TGI (M14 melanoma) | TGI (NCI-H226 lung) | TGI (SNB-19 CNS) | TGI (K-562 leukemia) | TGI (CCRF-CEM leukemia) | TGI (NCI-H23 lung) | TGI (IGROV1 ovarian) | TGI (DU-145 prostate) | TGI (SW-620 colon)
1430 nM: TGI (NCI-H522 lung)
3450 nM: TGI (SNB-75 CNS)
active: GI50 (SNB-75 CNS) 406 nM
5990 nM: TGI (RXF 393 renal)
1100 nM: TGI (HL-60(TB) leukemia)
1720 nM: TGI (SF-539 CNS)
inactive: GI50 (PC-3 prostate) 2740 nM | GI50 (SK-MEL-5 melanoma) 724 nM | GI50 (HCC-2998 colon) 4630 nM | GI50 (OVCAR-4 ovarian) 3160 nM | GI50 (MALME-3M melanoma) > 16500 nM | GI50 (SN12C renal) 4250 nM | GI50 (HS 578T breast) 762 nM | GI50 (UO-31 renal) 1860 nM | GI50 (ACHN renal) 1250 nM | GI50 (NCI/ADR-RES ovarian) 583 nM | GI50 (RXF 393 renal) 1210 nM | GI50 (HOP-92 NSCLC) 855 nM | GI50 (BT-549 breast) 850 nM | GI50 (UACC-62 melanoma) 880 nM | GI50 (SK-OV-3 ovarian) 1520 nM | GI50 (SK-MEL-28 melanoma) 1120 nM | GI50 (EKVX NSCLC) 6420 nM | GI50 (LOX IMVI melanoma) 1020 nM | GI50 (HT29 colon) 5830 nM | GI50 (CAKI-1 renal) 3260 nM | GI50 (HCT-116 colon) 646 nM | GI50 (SR leukemia) 627 nM | GI50 (MOLT-4 leukemia) 743 nM | GI50 (U251 CNS) 631 nM | GI50 (HOP-62 NSCLC) 814 nM | GI50 (RPMI-8226 leukemia) 726 nM | GI50 (HCT-15 colon) 749 nM | GI50 (TK-10 renal) 7750 nM | GI50 (COLO 205 colon) > 16500 nM | GI50 (SF-268 CNS) 1400 nM | GI50 (A498 renal) 3500 nM | GI50 (MCF7 breast) 762 nM | GI50 (A549 NSCLC) 6270 nM | GI50 (OVCAR-3 ovarian) 490 nM | GI50 (UACC-257 melanoma) > 16500 nM | GI50 (NCI-H460 lung) 663 nM | GI50 (OVCAR-5 ovarian) 8690 nM | GI50 (786-0 renal) 4870 nM | GI50 (OVCAR-8 ovarian) 1030 nM | GI50 (MDA-MB-231 breast) 1220 nM | GI50 (M14 melanoma) 509 nM | GI50 (NCI-H226 lung) > 16500 nM | GI50 (HL-60(TB) leukemia) 445 nM | GI50 (SF-539 CNS) 495 nM | GI50 (SNB-19 CNS) 1200 nM | GI50 (K-562 leukemia) 613 nM | GI50 (CCRF-CEM leukemia) 853 nM | GI50 (SF-295 CNS) 2300 nM | GI50 (NCI-H23 lung) 945 nM | GI50 (IGROV1 ovarian) 4160 nM | GI50 (DU-145 prostate) 1100 nM | GI50 (NCI-H522 lung) 446 nM | GI50 (SW-620 colon) 665 nM
